In brackets after ≈: the same amount, converted by molar mass.
Assays:
Format in all cases: functional
[1] = tested on: Candida albicans; experiment: Antifungal activity against Candida albicans CMAH 0507 after 48 to 72 hrs by broth microdilution method
[2] = tested on: Aspergillus sp.; experiment: Antifungal activity against Aspergillus sp. after 48 to 72 hrs by broth microdilution method
[3] = tested on: Candida albicans; experiment: Antifungal activity against Candida albicans CMAH 0572 after 48 to 72 hrs by broth microdilution method
[4] = tested on: Saccharomyces cerevisiae; experiment: Antimicrobial activity against Saccharomyces cerevisiae after 48 to 72 hrs by broth microdilution method
[5] = tested on: Candida albicans; experiment: Antifungal activity against fluconazole-resistant Candida albicans CMAH 0520 after 48 to 72 hrs by broth microdilution method
[6] = tested on: Candida albicans; experiment: Antifungal activity against Candida albicans CMAH 0511 after 48 to 72 hrs by broth microdilution method
[7] = tested on: Cryptococcus neoformans; experiment: Antifungal activity against Cryptococcus neoformans ATCC 90112 after 48 to 72 hrs by broth microdilution method
[8] = tested on: Candida albicans; experiment: Antifungal activity against fluconazole-resistant Candida albicans CMAM 0597 after 48 to 72 hrs by broth microdilution method
[9] = tested on: Candida albicans; experiment: Antifungal activity against Candida albicans CMAM 0577 after 48 to 72 hrs by broth microdilution method
[10] = tested on: Candida albicans; experiment: Antifungal activity against Candida albicans CMAM 0592 after 48 to 72 hrs by broth microdilution method
[11] = tested on: Candida albicans; experiment: Antifungal activity against Candida albicans CMAM 0594 after 48 to 72 hrs by broth microdilution method
[12] = tested on: Candida albicans; experiment: Antifungal activity against Candida albicans CMAH 0501 after 48 to 72 hrs by broth microdilution method
[13] = tested on: Candida albicans; experiment: Antifungal activity against Candida albicans CMAH 0503 after 48 to 72 hrs by broth microdilution method
[14] = tested on: Candida albicans; experiment: Antifungal activity against Candida albicans ATCC 10231 after 48 to 72 hrs by broth microdilution method
[15] = tested on: Rhodotorula glutinis; experiment: Antimicrobial activity against Rhodotorula glutinis SYM 2209 after 48 to 72 hrs by broth microdilution method
[16] = tested on: Candida albicans; experiment: Antifungal activity against Candida albicans CMAH 0527 after 48 to 72 hrs by broth microdilution method
[17] = tested on: Staphylococcus aureus; experiment: Antibacterial activity against methicillin-susceptible Staphylococcus aureus ATCC 25923 after 24 hrs by two fold dilution method; settings: ATCC 25923, 24 h
[18] = tested on: Bacillus subtilis; experiment: Antimicrobial activity against Bacillus subtilis after 24 hrs by two fold dilution method
[19] = tested on: Pseudomonas aeruginosa; experiment: Antimicrobial activity against Pseudomonas aeruginosa ATCC 27853 after 24 hrs by two fold dilution method; settings: ATCC 27853, 24 h
[20] = tested on: Staphylococcus aureus; experiment: Antibacterial activity against methicillin-resistant Staphylococcus aureus CMAH 0515 after 24 hrs by two fold dilution method
[21] = tested on: Staphylococcus aureus; experiment: Antibacterial activity against methicillin-resistant Staphylococcus aureus CMAH 0430 after 24 hrs by two fold dilution method
[22] = tested on: Klebsiella aerogenes; experiment: Antibacterial activity against Enterobacter aerogenes CMCC(B) 45103 after 24 hrs by two fold dilution method
[23] = tested on: Staphylococcus aureus; experiment: Antibacterial activity against methicillin-resistant Staphylococcus aureus CMAH 0504 after 24 hrs by two fold dilution method
[24] = tested on: Micrococcus luteus; experiment: Antimicrobial activity against Micrococcus luteus CMCC(B) 28001 after 24 hrs by two fold dilution method
[25] = tested on: Escherichia coli; experiment: Antimicrobial activity against Escherichia coli ATCC 25922 after 24 hrs by two fold dilution method; settings: ATCC 25922, 24 h
[26] = tested on: Proteus vulgaris; experiment: Antimicrobial activity against Proteus vulgaris CMCC(B) 49001 after 24 hrs by two fold dilution method

C[C@@H]1[C@H](O)[C@@H](C)/C=C/C=C/C=C/C=C/C=C/C=C/C=C/[C@H](O[C@@H]2O[C@H](C)[C@@H](O)[C@H](N)[C@@H]2O)C[C@@H]2O[C@](O)(C[C@@H](O)C[C@@H](O)[C@H](O)CC[C@@H](O)C[C@@H](O)CC(=O)O[C@H]1C)C[C@H](O)[C@H]2C(=O)O [AMPHOTERICIN B]
MFC [1]: 0.5 µg/mL (≈ 0.541 µM) | MIC [1]: 0.5 µg/mL (≈ 0.541 µM) | MFC50 [2]: 2 µg/mL (≈ 2.16 µM) | MFC90 [2]: 8 µg/mL (≈ 8.66 µM) | MFC ([2]; Aspergillus sp.): 2.96 µg/mL (≈ 3.2 µM) | MIC ([2]; Aspergillus sp.): 1.61 µg/mL (≈ 1.74 µM) | MIC50 ([2]; Aspergillus sp.): 1 µg/mL (≈ 1.08 µM) | MIC90 ([2]; Aspergillus sp.): 4 µg/mL (≈ 4.33 µM) | MFC [3]: 4 µg/mL (≈ 4.33 µM) | MIC [3]: 1 µg/mL (≈ 1.08 µM) | MFC [4]: 0.5 µg/mL (≈ 0.541 µM) | MIC [4]: 0.25 µg/mL (≈ 0.271 µM) | MFC [5]: 0.5 µg/mL (≈ 0.541 µM) | MIC [5]: 0.25 µg/mL (≈ 0.271 µM) | MFC [6]: 2 µg/mL (≈ 2.16 µM) | MIC [6]: 1 µg/mL (≈ 1.08 µM) | MFC [7]: 1 µg/mL (≈ 1.08 µM) | MIC [7]: 0.25 µg/mL (≈ 0.271 µM) | MFC [8]: 4 µg/mL (≈ 4.33 µM) | MIC [8]: 2 µg/mL (≈ 2.16 µM) | MFC [9]: 4 µg/mL (≈ 4.33 µM) | MIC [9]: 1 µg/mL (≈ 1.08 µM) | MFC [10]: 2 µg/mL (≈ 2.16 µM) | MIC [10]: 2 µg/mL (≈ 2.16 µM) | MFC [11]: 4 µg/mL (≈ 4.33 µM) | MIC [11]: 4 µg/mL (≈ 4.33 µM) | MFC [12]: 1 µg/mL (≈ 1.08 µM) | MIC [12]: 0.25 µg/mL (≈ 0.271 µM) | MFC [13]: 0.5 µg/mL (≈ 0.541 µM) | MIC [13]: 0.25 µg/mL (≈ 0.271 µM) | MFC [14]: 0.25 µg/mL (≈ 0.271 µM) | MIC [14]: 0.13 µg/mL (≈ 0.141 µM) | MFC [15]: > 64 µg/mL | MIC [15]: 16 µg/mL (≈ 17.3 µM) | MFC [16]: 1 µg/mL (≈ 1.08 µM) | MIC [16]: 0.5 µg/mL (≈ 0.541 µM)

CC1(C)S[C@@H]2[C@H](NC(=O)[C@H](N)c3ccccc3)C(=O)N2[C@H]1C(=O)O [AMPICILLIN]
MBC [17]: 0.5 µg/mL (≈ 1.43 µM) | MIC [17]: 0.25 µg/mL (≈ 0.715 µM) | MBC [18]: 0.25 µg/mL (≈ 0.715 µM) | MIC [18]: 0.3 µg/mL (≈ 0.859 µM) | MIC [19]: > 64 µg/mL | MIC [20]: > 64 µg/mL | MIC [21]: > 64 µg/mL | MIC [22]: > 64 µg/mL | MIC [23]: > 64 µg/mL | MFC [12]: 128 µg/mL (≈ 366 µM) | MIC [12]: 32 µg/mL (≈ 91.6 µM) | MBC [24]: 0.5 µg/mL (≈ 1.43 µM) | MIC [24]: 0.3 µg/mL (≈ 0.859 µM) | MBC [25]: 64 µg/mL (≈ 183 µM) | MIC [25]: 32 µg/mL (≈ 91.6 µM) | MBC [26]: 0.5 µg/mL (≈ 1.43 µM) | MIC [26]: 0.3 µg/mL (≈ 0.859 µM)

Reference: ChEMBL document CHEMBL1147026, “Synthesis of pseudopeptides based L-tryptophan as a potential antimicrobial agent” (Bioorg Med Chem Lett, 2007)
